Measured values: US20240270762A1, “PENICILLIN-BINDING PROTEIN INHIBITORS” (priority 2021, published 2024)
≈ marks a conversion by molar mass, not a printed value.

Columns and labels:
[1] = tested on: N. gonorrhoeae WHO M; assay: Liquid broth MIC in Fastidious broth; settings: Neisseria gonorrhoeae, read-out: Minimum Inhibitory Concentration (MIC), N. gonorrhoeae WHO M
[2] = tested on: N. gonorrhoeae CDC-0197; assay: Liquid broth MIC in Fastidious broth; settings: Neisseria gonorrhoeae, CDC0197, read-out: Minimum Inhibitory Concentration (MIC), N. gonorrhoeae CDC-0197
[3] = tested on: A. baumannii CDC-0036; assay: microbe, parasite or virus in culture; format: cell-based; settings: Acinetobacter baumannii, CDC0036, read-out: MIC, A. baumannii CDC-0036
[4] = tested on: P. aeruginosa CDC-0095; assay: microbe, parasite or virus in culture; format: cell-based; settings: Pseudomonas aeruginosa, CDC0095, read-out: Minimum inhibitory concentration, P. aeruginosa CDC-0095
[5] = target: T1, PBP3 from Pseudomonas aeruginosa (PAO1) (Pseudomonas aeruginosa, UniProt G3XD46); assay: Bocillin-FL fluorescence polarization competition binding, P. aeruginosa PBP3; settings: Binding affinity to P. aeruginosa PBP3; fluorescence polarization competition binding assay using Bocillin-FL; read-out: P. aeruginosa PBP3 Potency
T1 construct: made in house
T1 sequence (G3XD46 whole entry): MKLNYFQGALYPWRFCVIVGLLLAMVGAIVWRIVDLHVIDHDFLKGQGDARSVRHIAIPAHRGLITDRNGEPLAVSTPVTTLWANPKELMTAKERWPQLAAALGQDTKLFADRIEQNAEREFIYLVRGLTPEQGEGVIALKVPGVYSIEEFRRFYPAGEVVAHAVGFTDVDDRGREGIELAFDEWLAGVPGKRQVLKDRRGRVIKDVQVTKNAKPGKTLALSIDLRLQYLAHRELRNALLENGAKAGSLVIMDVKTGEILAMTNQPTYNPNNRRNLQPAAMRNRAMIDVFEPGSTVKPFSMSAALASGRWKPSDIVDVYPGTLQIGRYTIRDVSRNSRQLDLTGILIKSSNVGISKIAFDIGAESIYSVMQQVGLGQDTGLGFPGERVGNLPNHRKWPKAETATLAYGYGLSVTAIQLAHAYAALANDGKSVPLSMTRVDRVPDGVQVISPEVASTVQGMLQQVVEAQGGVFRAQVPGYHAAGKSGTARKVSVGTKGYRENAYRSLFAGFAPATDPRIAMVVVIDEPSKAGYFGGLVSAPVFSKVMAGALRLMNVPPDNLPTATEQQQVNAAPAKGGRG
Procedure, shortened: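 Purified PBPs pre-incubated with inhibitor (E. coli PBP3 1.5 μM, 30 min; P. aeruginosa PBP3 0.75 μM, A. baumannii PBP1a 1 μM and PBP3 0.2 μM, 15 min), then Bocillin-FL 0.1 μM (0.05 μM for PBP1a) added; FP read up to 60 min. EC50 = concentration halving bound Bocillin-FL.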

[6] = tested on: A. baumannii ATCC 17978; assay: microbe, parasite or virus in culture; format: cell-based; settings: Acinetobacter baumannii, ATCC17978, read-out: MIC, A. baumannii ATCC 17978
[7] = tested on: P. aeruginosa CDC-0110; assay: microbe, parasite or virus in culture; format: cell-based; settings: Pseudomonas aeruginosa, CDC0110, read-out: Minimum inhibitory concentration, P. aeruginosa CDC-0110
[8] = tested on: N. gonorrhoeae ATCC 49226; assay: Liquid broth MIC in Fastidious broth; settings: Neisseria gonorrhoeae, ATCC49226, read-out: Minimum Inhibitory Concentration (MIC), N. gonorrhoeae ATCC 49226
[9] = tested on: P. aeruginosa ATCC 35151; assay: microbe, parasite or virus in culture; format: cell-based; settings: Pseudomonas aeruginosa, ATCC35151, read-out: Minimum inhibitory concentration, P. aeruginosa ATCC 35151
[10] = tested on: A. baumannii CDC-0083; assay: microbe, parasite or virus in culture; format: cell-based; settings: Acinetobacter baumannii, CDC0083, read-out: MIC, A. baumannii CDC-0083
[11] = tested on: A. baumannii 1258916; assay: microbe, parasite or virus in culture; format: cell-based, Acinetobacter baumannii; settings: Acinetobacter baumannii, 1258916, read-out: MIC, A. baumannii 1258916
[12] = tested on: N. gonorrhoeae MS11; assay: Liquid broth MIC in Fastidious broth; settings: Neisseria gonorrhoeae, MS11, read-out: Minimum Inhibitory Concentration (MIC), N. gonorrhoeae MS11
[13] = tested on: N. gonorrhoeae WHO X; assay: Liquid broth MIC in Fastidious broth; settings: Neisseria gonorrhoeae, read-out: Minimum Inhibitory Concentration (MIC), N. gonorrhoeae WHO X
[14] = tested on: A. baumannii ATCC 19606; assay: microbe, parasite or virus in culture; format: cell-based; settings: Acinetobacter baumannii, ATCC19606, read-out: MIC, A. baumannii ATCC 19606
[15] = tested on: A. baumannii CDC-0033; assay: microbe, parasite or virus in culture; format: cell-based; settings: Acinetobacter baumannii, CDC0033, read-out: MIC, A. baumannii CDC-0033

| SMILES | MIC [1] [µg/mL] | MIC [2] [µg/mL] | MIC [3] [µg/mL] | MIC [4] [µg/mL] | IC50 [5] [µM] | MIC [6] [µg/mL] | MIC [7] [µg/mL] | MIC [8] [µg/mL] | MIC [9] [µg/mL] | MIC [10] [µg/mL] | MIC [11] [µg/mL] | MIC [12] [µg/mL] | MIC [13] [µg/mL] | MIC [14] [µg/mL] | MIC [15] [µg/mL] |
| --- | --- | --- | --- | --- | --- | --- | --- | --- | --- | --- | --- | --- | --- | --- | --- |
| CN(CCN1CCN(C(=O)N[C@@H](C(=O)N[C@H]2Cc3ccc(F)c(C(=O)O)c3OB2O)c2cc(F)c(O)c(O)c2Cl)C(=O)C1=O)Cc1nccs1 [Example 200, (R)-3-((R)-2-(2-chloro-5-fluoro-3,4-dihydroxyphenyl)-2-(4-(2-(methyl(thiazol-2-ylmethyl)amino)ethyl)-2,3-dioxopiperazine-1-carboxamido)acetamido)-7-fluoro-2-hydroxy-3,4-dihydro-2H-benzo[e][1,2]oxaborinine-8-carboxylic acid] | 4 to 8 (≈ 5.43 to 10.9 µM) | > 64 | 2 to 4 (≈ 2.71 to 5.43 µM) | < 1 | < 10 | < 1 | < 1 | 4 to 8 (≈ 5.43 to 10.9 µM) | < 1 | < 1 | < 1 | 16 to 32 (≈ 21.7 to 43.4 µM) | > 64 | < 1 | 2 to 4 (≈ 2.71 to 5.43 µM) |
| CN(CCN1CCN(C(=O)N[C@@H](C(=O)N[C@H]2Cc3ccc(F)c(C(=O)O)c3OB2O)c2cc(F)c(O)c(O)c2Cl)C(=O)C1=O)Cc1cccnc1 [Example 201, (R)-3-((R)-2-(2-chloro-5-fluoro-3,4-dihydroxyphenyl)-2-(4-(2-(methyl(pyridin-3-ylmethyl)amino)ethyl)-2,3-dioxopiperazine-1-carboxamido)acetamido)-7-fluoro-2-hydroxy-3,4-dihydro-2H-benzo[e][1,2]oxaborinine-8-carboxylic acid] | 4 to 8 (≈ 5.47 to 10.9 µM) | > 64 | 2 to 4 (≈ 2.74 to 5.47 µM) | < 1 | < 10 | < 1 | < 1 | 16 to 32 (≈ 21.9 to 43.8 µM) | < 1 | < 1 | < 1 | 16 to 32 (≈ 21.9 to 43.8 µM) | > 64 | < 1 | 2 to 4 (≈ 2.74 to 5.47 µM) |
| O=C(NCCCN1CCN(C(=O)NC(C(=O)N[C@H]2Cc3ccc(F)c(C(=O)O)c3OB2O)c2cc(F)c(O)c(O)c2Cl)C(=O)C1=O)c1ccccc1 (stereo partly drawn) [Example 202, (3R)-3-(2-(4-(3-benzamidopropyl)-2,3-dioxopiperazine-1-carboxamido)-2-(2-chloro-5-fluoro-3,4-dihydroxyphenyl)acetamido)-7-fluoro-2-hydroxy-3,4-dihydro-2H-benzo[e][1,2]oxaborinine-8-carboxylic acid] | 16 to 32 (≈ 21.5 to 43 µM) | > 64 | 2 to 4 (≈ 2.69 to 5.38 µM) | 2 to 4 (≈ 2.69 to 5.38 µM) | < 10 | < 1 | < 1 | 16 to 32 (≈ 21.5 to 43 µM) | < 1 | < 1 | < 1 | 16 to 32 (≈ 21.5 to 43 µM) | > 64 | < 1 | 8 to 16 (≈ 10.8 to 21.5 µM) |
| O=C(NCCCN1CCN(C(=O)NC(C(=O)N[C@H]2Cc3ccc(F)c(C(=O)O)c3OB2O)c2cc(F)c(O)c(O)c2Cl)C(=O)C1=O)c1ccc(O)cc1 (stereo partly drawn) [Example 203, (3R)-3-(2-(2-chloro-5-fluoro-3,4-dihydroxyphenyl)-2-(4-(3-(4-hydroxybenzamido)propyl)-2,3-dioxopiperazine-1-carboxamido)acetamido)-7-fluoro-2-hydroxy-3,4-dihydro-2H-benzo[e][1,2]oxaborinine-8-carboxylic acid] | 4 to 8 (≈ 5.26 to 10.5 µM) | 16 to 32 (≈ 21.1 to 42.1 µM) | < 1 | 2 to 4 (≈ 2.63 to 5.26 µM) | < 10 | < 1 | < 1 | 4 to 8 (≈ 5.26 to 10.5 µM) | < 1 | < 1 | < 1 | 4 to 8 (≈ 5.26 to 10.5 µM) | > 64 | < 1 | 2 to 4 (≈ 2.63 to 5.26 µM) |
| O=C(NCCCN1CCN(C(=O)NC(C(=O)N[C@H]2Cc3ccc(F)c(C(=O)O)c3OB2O)c2cc(F)c(O)c(O)c2Cl)C(=O)C1=O)c1cccc(O)c1 (stereo partly drawn) [Example 204, (3R)-3-(2-(2-chloro-5-fluoro-3,4-dihydroxyphenyl)-2-(4-(3-(3-hydroxybenzamido)propyl)-2,3-dioxopiperazine-1-carboxamido)acetamido)-7-fluoro-2-hydroxy-3,4-dihydro-2H-benzo[e][1,2]oxaborinine-8-carboxylic acid] | 4 to 8 (≈ 5.26 to 10.5 µM) | 16 to 32 (≈ 21.1 to 42.1 µM) | 2 to 4 (≈ 2.63 to 5.26 µM) | < 1 | < 10 | < 1 | < 1 | 16 to 32 (≈ 21.1 to 42.1 µM) | < 1 | < 1 | < 1 | 16 to 32 (≈ 21.1 to 42.1 µM) | > 64 | < 1 | 2 to 4 (≈ 2.63 to 5.26 µM) |
| O=C(NCCCN1CCN(C(=O)NC(C(=O)N[C@H]2Cc3ccc(F)c(C(=O)O)c3OB2O)c2cc(F)c(O)c(O)c2Cl)C(=O)C1=O)c1ccncc1 (stereo partly drawn) [Example 205, (3R)-3-(2-(2-chloro-5-fluoro-3,4-dihydroxyphenyl)-2-(4-(3-(isonicotinamido)propyl)-2,3-dioxopiperazine-1-carboxamido)acetamido)-7-fluoro-2-hydroxy-3,4-dihydro-2H-benzo[e][1,2]oxaborinine-8-carboxylic acid] | 4 to 8 (≈ 5.37 to 10.7 µM) | 16 to 32 (≈ 21.5 to 43 µM) | < 1 | < 1 | < 10 | < 1 | < 1 | 16 to 32 (≈ 21.5 to 43 µM) | < 1 | < 1 | < 1 | 4 to 8 (≈ 5.37 to 10.7 µM) | > 64 | < 1 | 2 to 4 (≈ 2.69 to 5.37 µM) |
| O=C(NCCCN1CCN(C(=O)NC(C(=O)N[C@H]2Cc3ccc(F)c(C(=O)O)c3OB2O)c2cc(F)c(O)c(O)c2Cl)C(=O)C1=O)Nc1cccc(O)c1 (stereo partly drawn) [Example 206, (3R)-3-(2-(2-chloro-5-fluoro-3,4-dihydroxyphenyl)-2-(4-(3-(3-(3-hydroxyphenyl)ureido)propyl)-2,3-dioxopiperazine-1-carboxamido)acetamido)-7-fluoro-2-hydroxy-3,4-dihydro-2H-benzo[e][1,2]oxaborinine-8-carboxylic acid] | 4 to 8 (≈ 5.16 to 10.3 µM) | 16 to 32 (≈ 20.6 to 41.3 µM) | < 1 | < 1 | < 10 | < 1 | < 1 | 16 to 32 (≈ 20.6 to 41.3 µM) | < 1 | < 1 | < 1 | 16 to 32 (≈ 20.6 to 41.3 µM) | > 64 | < 1 | 2 to 4 (≈ 2.58 to 5.16 µM) |
| O=C(NCCCN1CCN(C(=O)N[C@@H](C(=O)N[C@H]2Cc3ccc(F)c(C(=O)O)c3OB2O)c2cc(F)c(O)c(O)c2Cl)C(=O)C1=O)c1cccnc1 [Example 210, (R)-3-((R)-2-(2-chloro-5-fluoro-3,4-dihydroxyphenyl)-2-(4-(3-(nicotinamido)propyl)-2,3-dioxopiperazine-1-carboxamido)acetamido)-7-fluoro-2-hydroxy-3,4-dihydro-2H-benzo[e][1,2]oxaborinine-8-carboxylic acid] | 16 to 32 (≈ 21.5 to 43 µM) | > 64 | 2 to 4 (≈ 2.69 to 5.37 µM) | < 1 | < 10 | < 1 | < 1 | 16 to 32 (≈ 21.5 to 43 µM) | < 1 | 2 to 4 (≈ 2.69 to 5.37 µM) | < 1 | 16 to 32 (≈ 21.5 to 43 µM) | > 64 | < 1 | 8 to 16 (≈ 10.7 to 21.5 µM) |
| O=C(NCCN1CCN(C(=O)NC(C(=O)N[C@H]2Cc3ccc(F)c(C(=O)O)c3OB2O)c2cc(F)c(O)c(O)c2Cl)C(=O)C1=O)c1ccc(O)cc1 (stereo partly drawn) [Example 214, (3R)-3-(2-(2-chloro-5-fluoro-3,4-dihydroxyphenyl)-2-(4-(2-(4-hydroxybenzamido)ethyl)-2,3-dioxopiperazine-1-carboxamido)acetamido)-7-fluoro-2-hydroxy-3,4-dihydro-2H-benzo[e][1,2]oxaborinine-8-carboxylic acid] | 4 to 8 (≈ 5.36 to 10.7 µM) | 16 to 32 (≈ 21.5 to 42.9 µM) | 8 to 16 (≈ 10.7 to 21.5 µM) | 2 to 4 (≈ 2.68 to 5.36 µM) | < 10 | < 1 | < 1 | 4 to 8 (≈ 5.36 to 10.7 µM) | < 1 | > 128 | 2 to 4 (≈ 2.68 to 5.36 µM) | 16 to 32 (≈ 21.5 to 42.9 µM) | > 64 | < 1 | 8 to 16 (≈ 10.7 to 21.5 µM) |
